Publication PMC8998746, “Effect of Clinically Used Microtubule Targeting Drugs on Viral Infection and Transport Function” (International Journal of Molecular Sciences, 2022)
Like-named read-outs stand apart in the source and are kept apart here.

Legend:
[1] = system: KBP (kinesin) movement along MTs in AHRTG cells; test: In cell motility assay with kinesin binding peptide probe (KBP); format: cell-based, human; details: for KBP mean displacement, decrease / KBP mean velocity, decrease / KBP mean movement / proportion of transported particles (TM/CM), reduction: AHRTG cells, NOC 2.5 µM, PTX 10 µM; for KBP mean displacement, decrease / KBP mean velocity, decrease: vs control; for KBP mean movement / proportion of transported particles (TM/CM), reduction: vs untreated
[2] = system: Vero E6 cells; test: Cell viability, CellTiter 96 assay, Vero E6; details: Vero E6, 24 h treatment
[3] = system: Huh-7 Lunet C3 cells; test: Cell viability, CellTiter 96 assay, Huh-7 Lunet C3; details: Huh-7 Lunet C3, 24 h treatment, over 80% cell viability
[4] = system: Vero cells; test: Cell viability, CellTiter 96 assay, Vero; details: 24 h treatment
[5] = system: Huh-7 Lunet C3 cells; details: human, 24 h
[6] = system: Vero cells; details: African green monkey, 24 h
[7] = system: Vero E6 cells; details: African green monkey, 24 h
[8] = system: ASFV BPP30GFP; format: cell-based, African swine fever virus
[9] = system: VACV vtag2GFP; format: cell-based, vaccinia virus
[10] = system: VSV-G-luc (vesicular stomatitis virus); format: cell-based
[11] = system: DBP (dynein) movement along MTs in AHRTG cells; test: In cell motility assay with dynein binding peptide probe (DBP); format: cell-based, human; details: for DBP mean displacement, decrease / DBP mean velocity, decrease / DBP mean movement / proportion of transported particles (TM/CM), reduction: NOC 2.5 µM, PTX 10 µM; for DBP mean displacement, decrease / DBP mean velocity, decrease: vs control; for DBP mean movement / proportion of transported particles (TM/CM), reduction: vs untreated
[12] = system: SARS-CoV-2 strain NL/2020; test: microbe, parasite or virus in culture; format: cell-based; details: Severe acute respiratory syndrome coronavirus 2; A549-ACE2 cells, 1 h pretreatment, 48 h, optimal dose (PPT 100 nM); read-out: inhibition of SARS-CoV-2 infection

Question: For `CCCSc1ccc2nc(NC(=O)OC)[nH]c2c1` [ABZ, albendazole], which “effect on KBP movement (TM/CM ratio)” value [1] is on record?
Answer: very low effect on motion

Question: And the “effect on KBP particle displacement” value [1]?
Answer: no significant modification

Question: And the “effect on KBP particle velocity” value [1]?
Answer: no significant modification

Question: What about the highest non-toxic concentration [2] of the same compound?
Answer: 25 nM

Question: And the highest non-toxic concentration [3]?
Answer: 1 nM

Question: And the highest non-toxic concentration [4]?
Answer: 25 nM

Question: What does the source list for `COc1cc2c(c(OC)c1OC)-c1ccc(OC)c(=O)cc1[C@@H](NC(C)=O)CC2` [COL, colchicine]?
Answer: highest non-toxic concentration [2]: 25 nM; highest non-toxic concentration [3]: 0.2 nM; highest non-toxic concentration [4]: 75 nM

Question: Which results are given for `CO[C@H]1C(=O)[C@]2(C)[C@@H](OC)C[C@H]3OC[C@@]3(OC(C)=O)[C@H]2[C@H](OC(=O)c2ccccc2)[C@]2(O)C[C@H](OC(=O)[C@H](O)[C@@H](NC(=O)OC(C)(C)C)c3ccccc3)C(C)=C1C2(C)C` [CTX, cabazitaxel]?
Answer: effect on KBP movement (TM/CM ratio) [1]: affected particle motion; highest non-toxic concentration [2]: 25 nM; highest non-toxic concentration [3]: 0.01 nM; highest non-toxic concentration [4]: 10 nM

Question: Which results are given for `CC(=O)O[C@@]12CO[C@@H]1C[C@H](O)[C@@]1(C)C(=O)[C@H](O)C3=C(C)[C@@H](OC(=O)[C@H](O)[C@@H](NC(=O)OC(C)(C)C)c4ccccc4)C[C@@](O)([C@@H](OC(=O)c4ccccc4)[C@H]21)C3(C)C` [DTX, docetaxel]?
Answer: highest non-toxic concentration [2]: 10 nM; highest non-toxic concentration [3]: 0.03 nM; highest non-toxic concentration [4]: 10 nM

Question: What does the source list for `C/C(=C\c1csc(C)n1)[C@@H]1C[C@@H]2O[C@]2(C)CCC[C@H](C)[C@H](O)[C@@H](C)C(=O)C(C)(C)[C@@H](O)CC(=O)N1` [EPO, ixabepilone]?
Answer: highest non-toxic concentration [5]: 0.05 nM; highest non-toxic concentration [6]: 25 nM; highest non-toxic concentration [7]: 25 nM

Question: How did the highest non-toxic concentration [5] turn out when `C=C1C[C@@H]2CC[C@@]34C[C@H]5O[C@H]6[C@@H](O3)[C@H]3O[C@H](CC[C@@H]3O[C@H]6[C@H]5O4)CC(=O)C[C@@H]3[C@@H](OC)[C@@H](C[C@H](O)CN)O[C@H]3C[C@H]3O[C@@H](CC[C@@H]1O2)C[C@@H](C)C3=C` [ERIB, eribulin] was run?
Answer: 0.01 nM

Question: What about the highest non-toxic concentration [6] of the same compound?
Answer: 100 nM

Question: And the “inhibition of ASFV early infection (BPP30GFP)” value (“inhibition … (BPP30GFP)” for short) [8]?
Answer: up to 50%

Question: And the highest non-toxic concentration [7]?
Answer: 10 nM

Question: With `COC(=O)Nc1nc2ccc(Sc3ccccc3)cc2[nH]1` [FBZ, febendazole] as the compound, how does the “reduction of VACV (vtag2GFP) viral infection” value [9] read?
Answer: 40%

Question: And the highest non-toxic concentration [5]?
Answer: 1 nM

Question: What about the highest non-toxic concentration [6] of the same compound?
Answer: 75 nM

Question: What about the “inhibition … (BPP30GFP)” value [8] of the same compound?
Answer: 30%

Question: And the highest non-toxic concentration [7]?
Answer: 50 nM

Question: For `COc1cc2cc(c1Cl)N(C)C(=O)C[C@H](OC(=O)[C@H](C)N(C)C(C)=O)[C@]1(C)O[C@H]1[C@H](C)[C@@H]1C[C@@](O)(NC(=O)O1)[C@H](OC)/C=C/C=C(\C)C2` [MAYT, maytansine], which “effect on KBP movement (TM/CM ratio)” value [1] is on record?
Answer: significant reduction of the TM/CM ratio

Question: And the highest non-toxic concentration [2]?
Answer: 25 nM

Question: What about the “decrease of VSV infection” value [10] of the same compound?
Answer: 40%

Question: What about the highest non-toxic concentration [3] of the same compound?
Answer: 0.1 nM

Question: And the highest non-toxic concentration [4]?
Answer: 25 nM

Question: `COC(=O)Nc1nc2ccc(C(=O)c3ccccc3)cc2[nH]1` [MBZ, mebendazole] was tested. Which “concentration at which the DBP TM/CM ratio was affected” value ([11]; dose-response 0.1-10 μM MBZ) did it give?
Answer: > 2.5 µM

Question: And the highest non-toxic concentration [5]?
Answer: 5 nM

Question: And the highest non-toxic concentration [6]?
Answer: 10 nM

Question: And the highest non-toxic concentration [7]?
Answer: 10 nM

Question: `COC(=O)Nc1nc2ccc(C(=O)c3cccs3)cc2[nH]1` [NOC, nocodazole] was tested. Which “DBP mean displacement, decrease” value [11] did it give?
Answer: 44%

Question: And the “DBP mean velocity, decrease” value [11]?
Answer: 30%

Question: What about the “DBP mean movement / proportion of transported particles (TM/CM), reduction” value [11] of the same compound?
Answer: 60%

Question: What about the “KBP mean displacement, decrease” value [1] of the same compound?
Answer: 54%

Question: What about the “KBP mean velocity, decrease” value [1] of the same compound?
Answer: 36%

Question: What about the “KBP mean movement / proportion of transported particles (TM/CM), reduction” value [1] of the same compound?
Answer: 68%

Question: Which highest non-toxic concentration [5] does the source give for `COc1ccc2c(c1OC)C(=O)O[C@@H]2[C@H]1c2c(cc3c(c2OC)OCO3)CCN1C` [NOS, noscapine] here?
Answer: 100 nM

Question: What about the highest non-toxic concentration [6] of the same compound?
Answer: 100 nM

Question: What about the “effect on KBP movement (TM/CM ratio)” value [1] of the same compound?
Answer: no effect on KBP movement

Question: And the highest non-toxic concentration [7]?
Answer: 100 nM

Question: What does the source list for `CC(C)(C)c1[nH]cnc1/C=c1\[nH]c(=O)/c(=C/c2ccccc2)[nH]c1=O` [PLIN, plinabulin]?
Answer: reduction of VACV (vtag2GFP) viral infection [9]: 50%; inhibition of ASFV early infection (BPP30GFP) [8]: 30%; highest non-toxic concentration [2]: 25 nM; highest non-toxic concentration [3]: 0.5 nM; highest non-toxic concentration [4]: 25 nM

Question: Which highest non-toxic concentration [2] does the source give for `COc1cc([C@@H]2c3cc4c(cc3[C@H](O)[C@H]3COC(=O)[C@H]23)OCO4)cc(OC)c1OC` [PPT, podophylotoxin] here?
Answer: 50 nM

Question: What about the highest non-toxic concentration [3] of the same compound?
Answer: 0.2 nM

Question: And the highest non-toxic concentration [4]?
Answer: 50 nM

Question: And the inhibition at 0.1 µM [12]?
Answer: 60%

Question: How did the “DBP mean displacement, decrease” value [11] turn out when `CC(=O)O[C@H]1C(=O)[C@@]2(C)[C@H]([C@H](OC(=O)c3ccccc3)[C@]3(O)C[C@H](OC(=O)[C@H](O)[C@@H](NC(=O)c4ccccc4)c4ccccc4)C(C)=C1C3(C)C)[C@]1(OC(C)=O)CO[C@@H]1C[C@@H]2O` [PTX, paclitaxel] was run?
Answer: no alterations

Question: And the “DBP mean velocity, decrease” value [11]?
Answer: no alterations

Question: What about the “DBP mean movement / proportion of transported particles (TM/CM), reduction” value [11] of the same compound?
Answer: 27%

Question: And the highest non-toxic concentration [5]?
Answer: 5 nM

Question: And the highest non-toxic concentration [6]?
Answer: 25 nM

Question: And the “effect on KBP particle displacement” value [1]?
Answer: significantly decreased the displacement of particles

Question: And the “KBP mean displacement, decrease” value [1]?
Answer: 16%

Question: What about the “KBP mean velocity, decrease” value [1] of the same compound?
Answer: no meaningful changes

Question: What about the “KBP mean movement / proportion of transported particles (TM/CM), reduction” value [1] of the same compound?
Answer: 17%

Question: What about the highest non-toxic concentration [7] of the same compound?
Answer: 25 nM

Question: With `CC[C@]1(O)C[C@@H]2CN(CCc3c([nH]c4ccccc34)[C@@](C(=O)OC)(c3cc4c(cc3OC)N(C)[C@H]3[C@@](O)(C(=O)OC)[C@H](OC(C)=O)[C@]5(CC)C=CCN6CC[C@]43[C@@H]65)C2)C1` [VBL, vinblastine] as the compound, how does the highest non-toxic concentration [5] read?
Answer: 0.05 nM

Question: And the highest non-toxic concentration [6]?
Answer: 25 nM

Question: And the “inhibition … (BPP30GFP)” value [8]?
Answer: up to 50%

Question: And the “decrease of VSV infection” value [10]?
Answer: 90%

Question: What about the highest non-toxic concentration [7] of the same compound?
Answer: 5 nM

Question: Which results are given for `CC[C@]1(O)C[C@H]2CN(CCc3c([nH]c4ccccc34)[C@@](C(=O)OC)(c3cc4c(cc3OC)N(C=O)[C@H]3[C@@](O)(C(=O)OC)[C@H](OC(C)=O)[C@]5(CC)C=CCN6CC[C@]43[C@@H]65)C2)C1` [VCR, vincristine]?
Answer: highest non-toxic concentration [5]: 5 nM; highest non-toxic concentration [6]: 1 nM; highest non-toxic concentration [7]: 1 nM

Question: How did the highest non-toxic concentration [5] turn out when `CC[C@]1(O)C[C@@H]2CN(CCc3c([nH]c4ccccc34)[C@@](C(=O)OC)(c3cc4c(cc3OC)N(C)[C@H]3[C@@](O)(C(N)=O)[C@H](O)[C@]5(CC)C=CCN6CC[C@]43[C@@H]65)C2)C1` [VDS, vindesine] was run?
Answer: 0.02 nM

Question: What about the highest non-toxic concentration [6] of the same compound?
Answer: 100 nM

Question: And the “inhibition … (BPP30GFP)” value [8]?
Answer: up to 50%

Question: And the “decrease of VSV infection” value [10]?
Answer: 80%

Question: And the highest non-toxic concentration [7]?
Answer: 100 nM
